The data set can be described thus: physchem.
Description: "LogP" = Verteilungskoeffizient in einem Zweiphasengemisch aus n-Octanol und Wasser.
Die log P-Daten wurden in Übereinstimmung mit der EEC Direktive 79/831, Anlage V.A8 (Annex V.A8) mittels HPLC (High Performance Liquid Chromatography) auf einer Umkehrphase-Säule (reversed-phase column) (C18) mit folgenden Methoden bestimmt: Temperatur: 40°C; Mobile Phase: 0,1 % bzw. 0,06 %ige wässrige Ameisensäure oder 0,1 % wässriger Phosphorsäure und Acetonitril; linearer Gradient von 10% Acetonitril bis 90% bzw. 95 % Acetonitril. Die Kalibrierung wurde ausgeführt mit Hilfe unverzweigter Alkan-2-one (bestehend aus 3 bis 13 bzw.16 Kohlenstoff-Atomen) mit bekannten IogP-Werten (Bestimmung der IogP-Werte über die Retentionszeiten mittels linearer Interpolation zwischen zwei nachfolgenden Alkanonen).
`CCC(=NOCC#Cc1cccc([S+](C)[O-])c1)c1cccc(C)n1` (stereo not drawn) [Beispiel 3.096]: the chromatographic logP was found to be 2.21.
As for `CCSc1cc(C#CCON=Cc2ccc(F)cc2OC)ccc1C` [Beispiel 1.425], the chromatographic logP is 5.38.
In turn, `COc1nccnc1C=NOCC#Cc1cccc([S+](C)[O-])c1` (stereo not drawn) [Beispiel 4.090] showed a chromatographic logP of 1.57.
Turning to `COc1ccc(C=NOCC#Cc2cccc(CC#N)c2)c(OC)n1` [Beispiel 5.184], the chromatographic logP was 3.79.
In the case of `CC[S+]([O-])c1cc(C#CCON=Cc2ccccc2OC)ccc1C` (stereo not drawn) [Beispiel 1.426] it was 3.05; in that of `COc1ccc(C=NOCC#Cc2cc(SC)c(F)c(SC)c2)cn1` [Beispiel 5.148], 4.57.
As for `CCC(=NOCC#Cc1cccc(C(F)(F)F)c1)c1ccccc1F` [Beispiel 1.416], the chromatographic logP was 5.03.
In the case of `CCC(=NOCC#Cc1cccc(OC)c1)c1ccc(F)cc1` [Beispiel 1.411] it was 4.54; in that of `COc1cc(F)ccc1C=NOCC#Cc1cc(SC)c(F)c(SC)c1` [Beispiel 1.449], 5.17; in that of `COc1ncc(Cl)nc1C=NOCC#Cc1cccc(CC#N)c1` [Beispiel 4.094], 3.09.
On to `N#CCc1cccc(C#CCON=Cc2ccc(OCC(F)(F)F)nc2OCC(F)(F)F)c1` [Beispiel 5.192], for which the chromatographic logP was found to be 4.03.
Under `CCOc1nc(C=NOCC#Cc2cccc([S+](C)[O-])c2)ccc1F` (stereo not drawn) [Beispiel 3.126] stands 2.78.
The molecule `CCC(=NOCC#Cc1cccc(CC#N)c1)c1cccc(C)n1` [Beispiel 3.098] yielded a chromatographic logP of 3.5.
In the case of `COc1ccccc1C=NOCC#Cc1ccc(F)c(SC)c1F` [Beispiel 1.436] it was 4.48; in that of `CCSc1cc(C#CCON=Cc2ccccc2OC)ccc1OC` [Beispiel 1.398], 4.45.
In the case of `COc1ccc(C=NOCC#Cc2cccc([S+](C)[O-])c2)c(OC)c1` (stereo not drawn) [Beispiel 1.389] it was 2.42.
On to `COc1cc(F)ccc1C=NOCC#Cc1ccc(OC)c(SC)c1` [Beispiel 1.433], for which the chromatographic logP is 4.32.
The molecule `CCOc1nc(C=NOCC#Cc2cccc(SC)c2)ccc1F` [Beispiel 3.125] registered a chromatographic logP of 4.76.
The molecule `CC(=NOCC#Cc1cccc(S(C)(=O)=O)c1)c1cccc(C)n1` [Beispiel 3.093] returned a chromatographic logP of 2.4.
Under `CCSc1cccc(C#CCON=Cc2ccc(F)cc2OC)c1` [Beispiel 1.069] stands 4.9.
`COc1ccccc1C=NOCC#Cc1cc(C)c(F)c(SC)c1` [Beispiel 1.440] displayed a chromatographic logP of 5.01.
Molecule `CCOc1ncccc1C=NOCC#Cc1ccc(C)c([S+](C)[O-])c1` (stereo not drawn) [Beispiel 5.171] had a chromatographic logP of 2.83.
Under `CCC(=NOCC#Cc1cccc(CC#N)c1)c1cccc(Cl)c1Cl` [Beispiel 1.419] stands 4.84; under `CCSc1cccc(C#CCON=Cc2ccccc2OC)c1` [Beispiel 1.056], 4.9.
Under `CCC(=NOCC#Cc1cccc(SC)c1)c1cccc(C)n1` [Beispiel 3.095] stands 4.77; under `COc1ccc(C=NOCC#Cc2cc(C)c(F)c(SC)c2)cn1` [Beispiel 5.142], 4.54; under `COc1ccc(C=NOCC#Cc2ccc(F)c(SC)c2F)cn1` [Beispiel 5.139], 4.1.
In the case of `Cc1ccc(C#CCON=Cc2cccnc2)cc1[S+](C)[O-]` (stereo not drawn) [Beispiel 5.170] it was 1.37.
In the case of `COc1cccc(OC)c1C=NOCC#Cc1cccc(SC)c1` [Beispiel 1.393], the chromatographic logP stood at 3.77.
In the case of `CCC(=NOCC#Cc1cccc(C(F)(F)F)c1)c1ccc(F)cc1` [Beispiel 1.412] it was 5.13.
Under `CSc1nccnc1C=NOCC#Cc1cccc(CC#N)c1` [Beispiel 4.080] stands 2.99; under `COc1nccnc1C=NOCC#Cc1cccc(CC#N)c1` [Beispiel 4.086], 2.4; under `COc1ccc(C=NOCC#Cc2cccc(SC(C)C)c2)cn1` [Beispiel 5.136], 4.8.
With `CC[S+]([O-])c1cc(C#CCON=Cc2ccccc2OC)ccc1OC` (stereo not drawn) [Beispiel 1.401], the chromatographic logP stood at 3.07.
In the case of `COc1cccc(OC)c1C=NOCC#Cc1cccc([S+](C)[O-])c1` (stereo not drawn) [Beispiel 1.396] it was 2.04; in that of `CSc1cccc(C#CCON=Cc2ccc(OCC(F)(F)F)nc2OCC(F)(F)F)c1` [Beispiel 5.191], 5.08; in that of `COc1ccc(C=NOCC#Cc2cccc(SC)c2)c(OC)c1` [Beispiel 1.388], 4.4.
Under `CCC(=NOCC#Cc1cccc(CC#N)c1)c1ccccc1F` [Beispiel 1.418] stands 3.72; under `COc1ccccc1C=NOCC#Cc1ccccc1[S+](C)[O-]` (stereo not drawn) [Beispiel 1.445], 2.73; under `CSc1cccc(C#CCON=Cc2ccc(C3CCCC3)nc2)c1` [Beispiel 5.194], 5.44.
In the case of `CC[S+]([O-])c1cc(C#CCON=Cc2ccc(F)cc2OC)ccc1C` (stereo not drawn) [Beispiel 1.427] it was 3.15.
In turn, `CCC(=NOCC#Cc1cccc(C(F)(F)F)c1)c1ccc(C)cc1` [Beispiel 1.408] returned a chromatographic logP of 5.53.
Under `COc1ccccc1C=NOCC#Cc1cccc(SC(C)C)c1` [Beispiel 1.430] stands 5.24; under `COc1cc(F)ccc1C=NOCC#Cc1ccc(C#N)c(SC)c1` [Beispiel 1.395], 3.97.
Molecule `COc1ccc(C=NOCC#Cc2ccc(F)c(F)c2SC)cn1` [Beispiel 5.146] registered a chromatographic logP of 4.11.
In the case of `CCC(=NOCC#Cc1cccc(SC)c1)c1ccc(C)cc1` [Beispiel 1.409] it was 5.36; in that of `COc1ccc(C=NOCC#Cc2ccccc2SC)cn1` [Beispiel 5.143], 3.79.
Molecule `CCC(=NOCC#Cc1cccc(CC#N)c1)c1ccc(F)cc1` [Beispiel 1.414] yielded a chromatographic logP of 3.88.
Molecule `CC(C)Oc1ccc(C=NOCC#Cc2cccc(CC#N)c2)cn1` [Beispiel 5.178] displayed a chromatographic logP of 3.69.
In turn, `COc1cc(F)ccc1C=NOCC#Cc1ccc(F)c(F)c1[S+](C)[O-]` (stereo not drawn) [Beispiel 1.448] came in with a chromatographic logP of 2.78.
Under `COc1ccccc1-c1ccn(CC#Cc2cccc(SC)c2)n1` [Beispiel 6.050] stands 3.43; under `COc1ccccc1C=NOCC#Cc1cccc(F)c1F` [Beispiel 1.439], 4.29; under `COc1ccc(C=NOCC#Cc2ccc(C#N)c(SC)c2)cn1` [Beispiel 5.126], 3.49.
For `CC[S+]([O-])c1cc(C#CCON=Cc2ccc(OC)nc2)ccc1OC` (stereo not drawn) [Beispiel 5.132], the chromatographic logP is 2.42.
Under `COc1cc(F)ccc1C=NOCC#Cc1cc(C)c(F)c(SC)c1` [Beispiel 1.441] stands 5.05.
Regarding `COc1ncc(C=NOCC#Cc2cccc(CC#N)c2)cc1F` [Beispiel 5.044], the chromatographic logP worked out at 3.24.
On to `CSc1cccc(C#CC(C)ON=Cc2cccc(C)n2)c1` (stereo not drawn) [Beispiel 3.085], for which the chromatographic logP was 3.79.
Under `COc1cc(F)ccc1C=NOCC#Cc1cc(C)c(F)c([S+](C)[O-])c1` (stereo not drawn) [Beispiel 1.443] stands 3.43; under `CCC(=NOCC#Cc1cccc([S+](C)[O-])c1)c1ccc(F)cc1` (stereo not drawn) [Beispiel 1.423], 3.14.
In the case of `C=CCSc1cccc(C#CCON=Cc2ccc(OC)nc2)c1` [Beispiel 5.137] it was 4.72; in that of `COc1cccc(OC)c1C=NOCC#Cc1cccc(CC#N)c1` [Beispiel 1.397], 2.86; in that of `COc1ccc(C=NOCC#Cc2cc(C)c(F)c([S+](C)[O-])c2)cn1` (stereo not drawn) [Beispiel 5.144], 2.76.
In turn, `CSc1cccc(C#CCON=C(C)c2cccc(C)n2)c1` [Beispiel 3.091] displayed a chromatographic logP of 4.18.
In the case of `CCSc1cccc(C#CCON=Cc2ccc(OC)nc2)c1` [Beispiel 5.127] it was 4.34; in that of `COc1cc(F)ccc1C=NOCC#Cc1cccc(OC(F)(F)F)c1` [Beispiel 1.429], 4.77; in that of `COc1nc(Cl)cnc1C=NOCC#Cc1cccc([S+](C)[O-])c1` (stereo not drawn) [Beispiel 4.106], 2.21.
Under `COc1ccc(C=NOCC#Cc2cccc(OC(F)(F)F)c2)cn1` [Beispiel 5.135] stands 4.26.
Under `COc1ccccc1C=NOCC#Cc1ccccc1SC` [Beispiel 1.386] stands 4.23; under `CCC(=NOCC#Cc1cccc(C(F)(F)F)c1)c1ccccc1` [Beispiel 1.404], 5.13; under `COc1ccccc1C=NOCC#Cc1ccc(OC)c(SC)c1` [Beispiel 1.434], 4.24.
`CCSc1cc(C#CCON=Cc2ccccc2OC)ccc1C` [Beispiel 1.424] displayed a chromatographic logP of 5.33.
For the molecule `CCC(=NOCC#Cc1cccc([S+](C)[O-])c1)c1ccc(C)cc1` (stereo not drawn) [Beispiel 1.421], the chromatographic logP stood at 3.46.
`COc1nc(Cl)cnc1C=NOCC#Cc1cccc(SC)c1` [Beispiel 4.100] gave a chromatographic logP of 4.03.
In the case of `CCC(=NOCC#Cc1cccc(OC)c1)c1ccc(C)cc1` [Beispiel 1.407] it was 4.92.
Under `COc1cc(F)ccc1C=NOCC#Cc1ccc(F)c([S+](C)[O-])c1F` (stereo not drawn) [Beispiel 1.438] stands 2.75.
In the case of `COc1cc(F)ccc1C=NOCC#Cc1ccc(F)c(SC)c1F` [Beispiel 1.435] it was 4.54.
On to `CCSc1cc(C#CCON=Cc2ccc(OC)nc2)ccc1OC` [Beispiel 5.131], for which the chromatographic logP stood at 4.03.
The molecule `COc1cc(F)ccc1C=NOCC#Cc1ccc(F)c(F)c1SC` [Beispiel 1.447] came in with a chromatographic logP of 4.58.
In the case of `C=CCSc1cccc(C#CCON=Cc2ccc(F)cc2OC)c1` [Beispiel 1.432] it was 5.24; in that of `CSc1cccc(C#CCON=Cc2cc(C(F)(F)F)c(Cl)cn2)c1` [Beispiel 3.120], 4.92.
Under `COc1ncccc1C=NOCC#Cc1ccc(C)c([S+](C)[O-])c1` (stereo not drawn) [Beispiel 5.168] stands 2.42.

One may read the chromatographic logP as lipophilicity estimated from chromatographic retention. Lower therefore signals lower lipophilicity.

For the origin of these results see patent publication EP2017264A1, “Substituted phenyl propargyl compounds, method for their manufacture and their use as herbicides and plant growth regulators” (BAYER CROPSCIENCE AG, priority 2007, dated 2009).
